Results as given in patent US10538535B2, “Antitumoral compounds” (priority 2017, dated 2020).
Read-outs that look alike come from different tables or passages of the source.

What was measured:
A549 cells = experiment: cells; conditions: for CC50: read-out: LC50
Source text: (§1) The aim of this assay is to evaluate the in vitro cytostatic (ability to delay or arrest tumor cell growth) or cytotoxic (ability to kill tumor cells) activity of the samples being tested.
(§2) A colorimetric assay, using sulforhodamine B (SRB) reaction has been adapted to provide a quantitative measurement of cell growth and viability (following the technique described by Skehan et al. J. Natl. Cancer Inst. 1990, 82, 1107-1112). Another colorimetric assay based on 3-(4,5-Dimethylthiazol-2-yl)-2,5-diphenyltetrazolium bromide (MTT) reduction to a purple formazan has been also used to assess the antiproliferative activity (following the technique described by Mosmann et al. J. Immunol. Meth. 1983, 65, 55-63).
(§3) These forms of assays employ 96-well cell culture microplates following the standards of the American National Standards Institute and the Society for Laboratory Automation and Screening (ANSI SLAS 1-2004 (R2012) Oct. 12, 2011. All the cell lines used in this study were obtained from the American Type Culture Collection (ATCC) and derive from different types of human cancer.
(§4) A549, HT29, MDA-MB-231 and PSN1 cells were maintained in Dulbecco's Modified Eagle Medium (DMEM) while PC-3 and 22Rv1 cells were maintained in Roswell Park Memorial Institute Medium (RPMI). All cell lines were supplemented with 10% Fetal Bovine Serum (FBS), 2 mM L-glutamine, 100 U/mL penicillin, and 100 […] at 37° C., 5% CO2 and 98% humidity. For the experiments, cells were harvested from subconfluent cultures using trypsinization and resuspended in fresh medium before counting and plating.
(§5) A549, HT29, MDA-MB-231 and PSN1 cells were seeded in 96 well microtiter plates, at 5000 cells per well in aliquots of 150 μL, and allowed to attach to the plate surface for 18 hours (overnight) in drug free medium. After that, one control (untreated) plate of each cell line was fixed (as described below) and used for time zero reference value. Culture plates were then treated with test compounds (50 μL aliquots of 4× stock solutions in complete culture medium plus 4% DMSO) using ten 2/5 serial dilutions (concentrations ranging from 10 to 0.003 μg/mL) and triplicate cultures (1% final concentration in DMSO). After 72 hours treatment, the antitumor effect was measured by using the SRB methodology: Briefly, cells were washed twice with PBS, fixed for 15 min in 1% glutaraldehyde solution at room temperature, rinsed twice in PBS, and stained in 0.4% SRB solution for 30 min at room temperature. Cells were then rinsed several times with 1% acetic acid solution and air-dried at room temperature.
(§6) Effects on cell growth and survival were estimated by applying the NCI algorithm (Boyd M R and Paull K D. Drug Dev. Res. 1995, 34, 91-104). The values obtained in triplicate cultures were fitted by nonlinear regression to a four-parameters logistic curve by nonlinear regression analysis.

HT29 cells = experiment: cells; conditions: for CC50: read-out: LC50
Source text: as §1, §2, §3, §4, §5, §6

PC-3 tumors = conditions: 12-R 0.05 mg/kg
Source text: In this model, instead of male, female animals were used because PC-3 growth is not hormone dependant.

MDA-MB-231 cells = experiment: cells; conditions: for CC50: read-out: LC50
Source text: as §1, §2, §3, §4, §5, §6

PSN1 cells = experiment: cells; conditions: for CC50: read-out: LC50
Source text: as §1, §2, §3, §4, §5, §6

H82 tumors = experiment: In vivo xenograft, human lung (SCLC) H82; conditions: iv weekly, 47-R 0.1 mg/Kg, Compound D 0.5 mg/Kg
Description: Female athymic nu/nu mice (Harlan Laboratories Models, S. L. Barcelona, Spain or Envigo, Spain) were utilized for all experiments. Animal were housed in individually ventilated cages Sealsafe® Plus, Techniplast S.P.A.), up to ten per cage on a 12-hour light-dark cycle at 21-23° C. and 40-60% humidity. Mice were allowed free access to irradiated standard rodent diet (Tecklad 2914C) and sterilized water. Animals were acclimated for at least 5 days prior to tumor implantation with a tumor cell suspension.
H82 cells were grown as a suspension and maintained by addition of fresh medium, as the cell density increases, every 2 to 3 days. Every week, culture was reestablished by centrifugation of the suspension with subsequent resuspension in fresh medium at a concentration of 1×10^5 cell/ml. Animals were subcutaneously implanted (on the right flank using 26 G needle and a 1 cc syringe) at 4-6 weeks of age with 5×10^6 H82 cells, suspended in 0.05 mL of a solution consisting of 50% Matrigel® (Corning Incorporated Life Sciences) and 50% medium without serum or antibiotics.
Treatment tolerability was assessed by monitoring body weight evolution, clinical signs of systemic toxicity, as well as evidences of local damage in the injection site.
In xenograft studies with other cell lines: • Tumor volume was calculated using the equation (a·b^2)/2, where a: length (longest diameter) and b: width (shortest diameter) were measured in mm by using digital caliper (Fowler Sylvac, S235PAT).
Treatments producing >20% lethality and/or 20% net body weight loss were considered toxic.
Tables and figures summarize the data obtained from complete experimental groups, i.e. those groups keeping the initial number of animals, n=8-10.

H526 tumors = experiment: In vivo xenograft, human lung (SCLC) H526; conditions: iv weekly, 47-R 0.1 mg/Kg, Compound D 0.5 mg/Kg
[1] = MDA-MB-231, 72 hours treatment, SRB

COc1c(C)cc2c(c1O)[C@@H]1[C@@H]3[C@@H]4SC[C@]5(N[C@H](CN)Cc6c5[nH]c5ccccc65)C(=O)OC[C@@H](c5c6c(c(C)c(OC(C)=O)c54)OCO6)N3[C@@H](O)[C@H](C2)N1C [Compound 12-S]
CC50 (A549 cells; Homo sapiens, A549, 72 h): > 128 nM | CC50 (HT29 cells; Homo sapiens, HT-29, 72 h): > 128 nM | Median Tumor Volume (PC-3 tumors; Day 0, iv Days 0, 7 and 14, 12-S […]): 128.0 mm^3 | Median Tumor Volume (PC-3 tumors; Day 2, iv Days 0, 7 and 14, 12-S […]): 141.5 mm^3 | Median Tumor Volume (PC-3 tumors; Day 4, iv Days 0, 7 and 14, 12-S […]): 143.7 mm^3 | Median Tumor Volume (PC-3 tumors; Day 7, iv Days 0, 7 and 14, 12-S […]): 183.9 mm^3 | Median Tumor Volume (PC-3 tumors; Day 11, iv Days 0, 7 and 14, 12-S […]): 208.1 mm^3 | Median Tumor Volume (PC-3 tumors; Day 14, iv Days 0, 7 and 14, 12-S […]): 270.7 mm^3 | Median Tumor Volume (PC-3 tumors; Day 16, iv Days 0, 7 and 14, 12-S […]): 286.3 mm^3 | Median Tumor Volume (PC-3 tumors; Day 18, iv Days 0, 7 and 14, 12-S […]): 336.1 mm^3 | Median Tumor Volume (PC-3 tumors; Day 21, iv Days 0, 7 and 14, 12-S […]): 357.1 mm^3 | Median Tumor Volume (PC-3 tumors; Day 23, iv Days 0, 7 and 14, 12-S […]): 400.8 mm^3 | Median Tumor Volume (PC-3 tumors; Day 25, iv Days 0, 7 and 14, 12-S […]): 443.6 mm^3 | Median Tumor Volume (PC-3 tumors; Day 29, iv Days 0, 7 and 14, 12-S […]): 523.4 mm^3 | Median Tumor Volume (PC-3 tumors; Day 32, iv Days 0, 7 and 14, 12-S […]): 652.6 mm^3 | Median Tumor Volume (PC-3 tumors; Day 35, iv Days 0, 7 and 14, 12-S […]): 689.7 mm^3 | Median Tumor Volume (PC-3 tumors; Day 37, iv Days 0, 7 and 14, 12-S […]): 692.2 mm^3 | Median Tumor Volume (PC-3 tumors; Day 39, iv Days 0, 7 and 14, 12-S […]): 726.9 mm^3 | Median Tumor Volume (PC-3 tumors; Day 42, iv Days 0, 7 and 14, 12-S […]): 823.7 mm^3 | Median Tumor Volume (PC-3 tumors; Day 44, iv Days 0, 7 and 14, 12-S […]): 864.2 mm^3 | Median Tumor Volume (PC-3 tumors; Day 46, iv Days 0, 7 and 14, 12-S […]): 1182.8 mm^3 | Median Tumor Volume (PC-3 tumors; Day 49, iv Days 0, 7 and 14, 12-S […]): 1219.2 mm^3 | Median Tumor Volume (PC-3 tumors; Day 51, iv Days 0, 7 and 14, 12-S […]): 1331.9 mm^3 | Median Tumor Volume (PC-3 tumors; Day 56, iv Days 0, 7 and 14, 12-S […]): 1335.2 mm^3

COc1c(C)cc2c(c1O)[C@@H]1[C@@H]3[C@@H]4SC[C@]5(N[C@H](CO)Cc6c5oc5ccccc65)C(=O)OC[C@@H](c5c6c(c(C)c(OC(C)=O)c54)OCO6)N3[C@@H](C#N)[C@H](C2)N1C [Compound 38-S]
GI50 (A549 cells; Homo sapiens, A549, 72 h): 8.05 nM | CC50 (A549 cells; Homo sapiens, A549, 72 h): 9.44 nM | IC (TGI) (A549 cells; Homo sapiens, A549, 72 h, read-out: TGI): 8.55 nM | GI50 (HT29 cells; Homo sapiens, HT-29, 72 h): 4.53 nM | CC50 (HT29 cells; Homo sapiens, HT-29, 72 h): > 126 nM | IC (TGI) (HT29 cells; Homo sapiens, HT-29, 72 h, read-out: TGI): 7.05 nM | GI50 (MDA-MB-231 cells; Homo sapiens, MDA-MB-231, 72 h): 2.52 nM | CC50 (MDA-MB-231 cells; Homo sapiens, MDA-MB-231, 72 h): 7.8 nM | IC (TGI) (MDA-MB-231 cells; Homo sapiens, MDA-MB-231, 72 h, read-out: TGI): 4.28 nM | GI50 (PSN1 cells; Homo sapiens, PSN1, 72 h, PSN1, 72 hours treatment, SRB): 5.03 nM | CC50 (PSN1 cells; Homo sapiens, PSN1, 72 h): 15.1 nM | IC (TGI) (PSN1 cells; Homo sapiens, PSN1, 72 h, read-out: TGI): 8.18 nM

COc1c(C)cc2c(c1O)[C@@H]1[C@@H]3[C@@H]4SC[C@]5(N[C@@H](CN)Cc6c5oc5ccccc65)C(=O)OC[C@@H](c5c6c(c(C)c(OC(C)=O)c54)OCO6)N3[C@@H](O)[C@H](C2)N1C [Compound 47-R]
CC50 (HT29 cells; Homo sapiens, HT-29, 72 h): > 127 nM | CC50 (MDA-MB-231 cells; Homo sapiens, MDA-MB-231, 72 h): 2.55 nM | CC50 (PSN1 cells; Homo sapiens, PSN1, 72 h): 3.31 nM | Median Tumor Volume (H82 tumors; Table 57, Day 0): 169.0 mm^3 | Median Tumor Volume (H82 tumors; Table 57, Day 2): 371.6 mm^3 | Median Tumor Volume (H82 tumors; Table 57, Day 5): 888.8 mm^3 | Median Tumor Volume (H82 tumors; Table 57, Day 7): 1314.2 mm^3 | Median Tumor Volume (H82 tumors; Table 57, Day 9): 1811.0 mm^3 | Median Tumor Volume (H82 tumors; Table 57, Day 12): 2055.4 mm^3 | Median Tumor Volume (H526 tumors; Table 56, Day 0): 211.5 mm^3 | Median Tumor Volume (H526 tumors; Table 56, Day 2): 367.9 mm^3 | Median Tumor Volume (H526 tumors; Table 56, Day 4): 583.7 mm^3 | Median Tumor Volume (H526 tumors; Table 56, Day 7): 941.7 mm^3 | Median Tumor Volume (H526 tumors; Table 56, Day 9): 1305.2 mm^3 | Median Tumor Volume (H526 tumors; Table 56, Day 11): 1484.7 mm^3 | Median Tumor Volume (H526 tumors; Table 56, Day 14): 2025.0 mm^3

COc1c(C)cc2c(c1O)[C@@H]1[C@@H]3[C@@H]4SC[C@]5(N[C@H](CN)Cc6c5oc5ccccc65)C(=O)OC[C@@H](c5c6c(c(C)c(OC(C)=O)c54)OCO6)N3[C@@H](O)[C@H](C2)N1C [Compound 47-S]
CC50 (A549 cells; Homo sapiens, A549, 72 h): > 127 nM | CC50 (HT29 cells; Homo sapiens, HT-29, 72 h): > 127 nM | CC50 (MDA-MB-231 cells; Homo sapiens, MDA-MB-231, 72 h): 16.6 nM | CC50 (PSN1 cells; Homo sapiens, PSN1, 72 h): 12.7 nM

COc1ccc2[nH]c3c(c2c1)CCNC31CSC2c3c(OC(C)=O)c(C)c4c(c3C(COC1=O)N1C(C#N)C3Cc5cc(C)c(OC)c(O)c5C(C21)N3C)OCO4 (centres unmarked) [E]
GI50 (A549 cells; A549, 72 hours treatment, SRB): 3.28 nM | TGI (A549 cells; A549, 72 hours treatment, SRB): 3.40E−09 Molar | CC50 (A549 cells; A549, 72 hours treatment, SRB): 4.41 nM | GI50 (HT29 cells; HT29, 72 hours treatment, SRB): 3.15 nM | TGI (HT29 cells; HT29, 72 hours treatment, SRB): 3.40E−09 Molar | CC50 (HT29 cells; HT29, 72 hours treatment, SRB): > 126 nM | GI50 (MDA-MB-231 cells; [1]): 2.27 nM | TGI (MDA-MB-231 cells; [1]): 3.78E−09 Molar | CC50 (MDA-MB-231 cells; [1]): 7.43 nM | GI50 (PSN1 cells; PSN1, 72 hours treatment, SRB): 2.77 nM | TGI (PSN1 cells; PSN1, 72 hours treatment, SRB): 4.53E−09 Molar | CC50 (PSN1 cells; PSN1, 72 hours treatment, SRB): 8.94 nM
